Each block holds one compound with its values, some of them ahead of it.
Assays:
[1] = target: Serine/threonine-protein kinase MARK2 (Homo sapiens) (UniProt Q7KZI7); experiment: Selectivity interaction (ActivX KiNativ screen (kinase selectivity in THP-1 cell lysates)) EUB0000639a MARK2; type: subcellular; conditions: lysate, at 5 µM
[2] = target: Serine/threonine-protein kinase PLK1 (Homo sapiens, UniProt P53350); experiment: Selectivity interaction (ActivX KiNativ screen (kinase selectivity in THP-1 cell lysates)) EUB0000639a PLK1; type: subcellular; conditions: lysate, at 5 µM
[3] = target: Serine/threonine-protein kinase tousled-like 2 (Homo sapiens) (UniProt Q86UE8); experiment: Selectivity interaction (KinomeScan (DiscoverX)) EUB0000595a TLK2; conditions: at 10 µM
[4] = target: Mitogen-activated protein kinase kinase kinase 11 (Homo sapiens) (UniProt Q16584); experiment: Selectivity interaction (KinomeScan (DiscoverX)) EUB0000229b MAP3K11; conditions: at 10 µM
[5] = target: T1, Atypical kinase COQ8B, mitochondrial (Homo sapiens) (UniProt Q96D53); experiment: Selectivity interaction (KinomeScan (DiscoverX)) EUB0000045b ADCK4
T1 sequence (whole entry): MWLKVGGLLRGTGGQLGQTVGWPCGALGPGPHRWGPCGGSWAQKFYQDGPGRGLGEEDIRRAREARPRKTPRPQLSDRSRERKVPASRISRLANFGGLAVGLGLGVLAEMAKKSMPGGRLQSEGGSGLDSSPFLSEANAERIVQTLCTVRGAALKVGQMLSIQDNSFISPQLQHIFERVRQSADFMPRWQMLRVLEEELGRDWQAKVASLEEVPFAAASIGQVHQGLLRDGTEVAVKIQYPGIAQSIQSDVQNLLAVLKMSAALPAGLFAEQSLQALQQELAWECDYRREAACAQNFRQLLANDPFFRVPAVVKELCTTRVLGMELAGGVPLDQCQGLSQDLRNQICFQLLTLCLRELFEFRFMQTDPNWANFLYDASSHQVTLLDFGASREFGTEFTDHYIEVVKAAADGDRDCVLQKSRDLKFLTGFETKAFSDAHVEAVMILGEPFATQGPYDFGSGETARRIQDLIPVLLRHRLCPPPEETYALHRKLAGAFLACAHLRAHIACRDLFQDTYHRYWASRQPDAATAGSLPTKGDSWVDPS

[6] = target: T2, Serine/threonine-protein kinase D3 (Homo sapiens) (UniProt O94806); experiment: Selectivity interaction (KinomeScan (DiscoverX)) EUB0000655a PRKD3; conditions: at 10 µM
T2 sequence (whole entry): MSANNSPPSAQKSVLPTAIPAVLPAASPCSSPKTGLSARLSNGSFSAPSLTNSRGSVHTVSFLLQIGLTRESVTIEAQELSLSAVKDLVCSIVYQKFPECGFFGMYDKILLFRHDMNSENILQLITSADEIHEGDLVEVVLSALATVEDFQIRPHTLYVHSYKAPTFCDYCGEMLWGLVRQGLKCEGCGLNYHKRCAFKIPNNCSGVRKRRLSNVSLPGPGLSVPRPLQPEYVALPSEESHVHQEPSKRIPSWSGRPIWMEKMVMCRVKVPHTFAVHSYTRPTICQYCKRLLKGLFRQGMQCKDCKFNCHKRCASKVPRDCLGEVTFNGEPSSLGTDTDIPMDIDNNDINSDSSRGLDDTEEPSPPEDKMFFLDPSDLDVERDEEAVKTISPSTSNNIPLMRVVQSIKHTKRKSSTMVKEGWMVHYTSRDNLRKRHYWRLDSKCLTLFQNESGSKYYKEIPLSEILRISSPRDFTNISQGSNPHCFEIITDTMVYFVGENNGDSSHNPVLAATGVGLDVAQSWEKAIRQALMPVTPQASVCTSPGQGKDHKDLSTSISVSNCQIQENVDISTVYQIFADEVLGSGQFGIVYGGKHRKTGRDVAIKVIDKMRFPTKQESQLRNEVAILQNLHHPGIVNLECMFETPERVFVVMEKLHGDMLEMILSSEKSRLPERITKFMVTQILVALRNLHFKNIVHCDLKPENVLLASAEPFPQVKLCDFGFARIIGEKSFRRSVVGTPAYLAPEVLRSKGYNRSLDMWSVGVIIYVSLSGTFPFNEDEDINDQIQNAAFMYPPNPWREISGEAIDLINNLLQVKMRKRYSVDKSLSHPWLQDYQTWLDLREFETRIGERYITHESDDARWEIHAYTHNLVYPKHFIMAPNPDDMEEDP

[7] = target: T3, Ephrin type-B receptor 4 (Homo sapiens) (UniProt P54760); experiment: Selectivity interaction (KinomeScan (DiscoverX)) EUB0000655a EPHB4; conditions: at 10 µM
T3 sequence (whole entry): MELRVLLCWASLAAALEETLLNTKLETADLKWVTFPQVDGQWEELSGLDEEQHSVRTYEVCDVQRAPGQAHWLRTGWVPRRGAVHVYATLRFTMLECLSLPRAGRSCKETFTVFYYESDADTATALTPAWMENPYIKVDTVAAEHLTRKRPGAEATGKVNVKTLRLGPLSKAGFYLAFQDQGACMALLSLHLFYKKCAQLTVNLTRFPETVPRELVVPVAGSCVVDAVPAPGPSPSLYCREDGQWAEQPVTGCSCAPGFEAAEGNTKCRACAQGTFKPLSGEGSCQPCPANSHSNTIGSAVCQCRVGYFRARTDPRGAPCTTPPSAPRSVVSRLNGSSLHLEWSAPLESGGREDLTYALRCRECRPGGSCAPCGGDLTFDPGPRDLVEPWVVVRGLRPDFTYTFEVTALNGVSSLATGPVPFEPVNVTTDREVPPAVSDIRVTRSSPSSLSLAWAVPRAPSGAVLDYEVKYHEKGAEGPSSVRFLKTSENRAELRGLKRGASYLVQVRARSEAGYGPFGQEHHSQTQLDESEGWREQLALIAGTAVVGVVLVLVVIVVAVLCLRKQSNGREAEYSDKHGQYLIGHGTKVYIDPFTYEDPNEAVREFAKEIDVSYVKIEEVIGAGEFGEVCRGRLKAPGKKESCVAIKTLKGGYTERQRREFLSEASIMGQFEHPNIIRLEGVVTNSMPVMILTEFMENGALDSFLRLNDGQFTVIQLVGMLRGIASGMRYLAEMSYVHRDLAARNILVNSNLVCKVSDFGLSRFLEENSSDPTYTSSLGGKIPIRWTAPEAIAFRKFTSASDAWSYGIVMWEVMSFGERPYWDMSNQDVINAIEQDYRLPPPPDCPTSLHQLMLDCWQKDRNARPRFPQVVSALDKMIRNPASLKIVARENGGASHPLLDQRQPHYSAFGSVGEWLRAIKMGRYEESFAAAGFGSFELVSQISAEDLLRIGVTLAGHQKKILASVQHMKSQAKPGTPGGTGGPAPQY

[8] = target: Myosin light chain kinase 2, skeletal/cardiac muscle (Homo sapiens) (UniProt Q9H1R3); experiment: Selectivity interaction (SelectScreen profiling (Invitrogen)) EUB0000607a MYLK2; conditions: at 2 µM
[9] = target: Calcium/calmodulin-dependent protein kinase type II subunit alpha (Homo sapiens, UniProt Q9UQM7); experiment: Selectivity interaction (KinomeScan (DiscoverX)) EUB0000666a CAMK2A; conditions: at 10 µM
Calcium/calmodulin-dependent protein kinase type II subunit alpha, sequence (Q9UQM7 whole entry): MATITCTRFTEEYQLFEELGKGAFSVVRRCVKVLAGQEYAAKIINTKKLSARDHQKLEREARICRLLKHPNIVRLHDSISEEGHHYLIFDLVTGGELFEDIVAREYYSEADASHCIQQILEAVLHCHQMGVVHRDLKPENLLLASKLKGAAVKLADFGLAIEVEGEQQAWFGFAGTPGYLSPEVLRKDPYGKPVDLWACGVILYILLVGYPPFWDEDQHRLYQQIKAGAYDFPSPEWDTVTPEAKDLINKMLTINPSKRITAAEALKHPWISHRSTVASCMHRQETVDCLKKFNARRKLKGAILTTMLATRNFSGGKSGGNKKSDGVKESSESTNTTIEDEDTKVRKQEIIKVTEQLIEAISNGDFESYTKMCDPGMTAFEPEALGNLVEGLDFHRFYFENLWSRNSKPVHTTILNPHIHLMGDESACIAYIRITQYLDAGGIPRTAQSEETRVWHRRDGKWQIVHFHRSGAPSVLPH

Serine/threonine-protein kinase PLK1, sequence (P53350 whole entry): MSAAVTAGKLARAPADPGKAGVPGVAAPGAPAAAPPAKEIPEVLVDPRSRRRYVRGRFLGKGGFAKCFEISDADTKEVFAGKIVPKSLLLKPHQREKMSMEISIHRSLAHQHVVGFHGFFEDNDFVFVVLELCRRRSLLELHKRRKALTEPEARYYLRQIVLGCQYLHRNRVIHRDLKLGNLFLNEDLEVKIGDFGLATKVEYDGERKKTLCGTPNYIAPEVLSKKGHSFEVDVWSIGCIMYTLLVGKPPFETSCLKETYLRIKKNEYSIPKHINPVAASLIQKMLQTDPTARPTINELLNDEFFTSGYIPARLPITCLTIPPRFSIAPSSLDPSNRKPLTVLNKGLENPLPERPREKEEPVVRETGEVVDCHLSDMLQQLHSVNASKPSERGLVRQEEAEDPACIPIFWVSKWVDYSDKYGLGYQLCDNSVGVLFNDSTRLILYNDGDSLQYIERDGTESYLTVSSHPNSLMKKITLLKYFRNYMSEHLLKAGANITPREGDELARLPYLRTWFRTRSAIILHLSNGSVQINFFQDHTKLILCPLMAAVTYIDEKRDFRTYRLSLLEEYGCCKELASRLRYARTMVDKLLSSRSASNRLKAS
Myosin light chain kinase 2, skeletal/cardiac muscle (Homo sapiens), sequence (Q9H1R3 whole entry): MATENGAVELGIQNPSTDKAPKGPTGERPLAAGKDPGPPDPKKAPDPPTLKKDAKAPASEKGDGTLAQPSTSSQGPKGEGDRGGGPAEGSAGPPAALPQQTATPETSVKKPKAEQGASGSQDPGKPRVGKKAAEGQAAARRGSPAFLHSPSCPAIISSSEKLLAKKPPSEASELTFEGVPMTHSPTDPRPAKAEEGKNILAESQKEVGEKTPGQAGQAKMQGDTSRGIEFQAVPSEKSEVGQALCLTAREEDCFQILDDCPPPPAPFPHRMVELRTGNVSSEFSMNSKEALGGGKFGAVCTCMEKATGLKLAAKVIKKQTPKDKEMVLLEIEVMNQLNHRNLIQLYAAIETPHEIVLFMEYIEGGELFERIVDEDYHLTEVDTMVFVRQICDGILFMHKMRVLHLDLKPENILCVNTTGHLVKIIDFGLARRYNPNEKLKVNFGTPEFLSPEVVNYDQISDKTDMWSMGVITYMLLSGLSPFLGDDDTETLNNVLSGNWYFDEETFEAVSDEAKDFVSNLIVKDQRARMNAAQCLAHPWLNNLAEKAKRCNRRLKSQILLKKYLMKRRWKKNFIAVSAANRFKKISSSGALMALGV
Serine/threonine-protein kinase tousled-like 2 (Homo sapiens), sequence (Q86UE8 whole entry, looked up): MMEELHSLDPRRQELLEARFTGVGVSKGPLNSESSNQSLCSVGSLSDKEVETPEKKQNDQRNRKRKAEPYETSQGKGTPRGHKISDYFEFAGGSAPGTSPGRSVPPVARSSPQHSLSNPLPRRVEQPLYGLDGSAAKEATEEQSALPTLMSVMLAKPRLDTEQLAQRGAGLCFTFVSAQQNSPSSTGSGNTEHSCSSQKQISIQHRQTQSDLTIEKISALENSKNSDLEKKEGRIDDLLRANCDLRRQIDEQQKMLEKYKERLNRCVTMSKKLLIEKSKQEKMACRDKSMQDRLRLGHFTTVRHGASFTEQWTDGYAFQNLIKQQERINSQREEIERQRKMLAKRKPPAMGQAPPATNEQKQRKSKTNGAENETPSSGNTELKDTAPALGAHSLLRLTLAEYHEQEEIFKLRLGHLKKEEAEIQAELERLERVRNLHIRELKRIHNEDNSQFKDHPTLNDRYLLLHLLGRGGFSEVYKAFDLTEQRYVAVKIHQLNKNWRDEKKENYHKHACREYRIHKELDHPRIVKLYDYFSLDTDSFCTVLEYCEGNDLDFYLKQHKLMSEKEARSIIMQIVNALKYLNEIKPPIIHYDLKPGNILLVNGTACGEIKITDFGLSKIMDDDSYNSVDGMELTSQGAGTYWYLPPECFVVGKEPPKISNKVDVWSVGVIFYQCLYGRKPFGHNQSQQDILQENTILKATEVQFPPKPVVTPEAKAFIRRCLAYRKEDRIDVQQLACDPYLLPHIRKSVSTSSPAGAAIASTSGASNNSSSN
Mitogen-activated protein kinase kinase kinase 11 (Homo sapiens), sequence (Q16584 whole entry, looked up): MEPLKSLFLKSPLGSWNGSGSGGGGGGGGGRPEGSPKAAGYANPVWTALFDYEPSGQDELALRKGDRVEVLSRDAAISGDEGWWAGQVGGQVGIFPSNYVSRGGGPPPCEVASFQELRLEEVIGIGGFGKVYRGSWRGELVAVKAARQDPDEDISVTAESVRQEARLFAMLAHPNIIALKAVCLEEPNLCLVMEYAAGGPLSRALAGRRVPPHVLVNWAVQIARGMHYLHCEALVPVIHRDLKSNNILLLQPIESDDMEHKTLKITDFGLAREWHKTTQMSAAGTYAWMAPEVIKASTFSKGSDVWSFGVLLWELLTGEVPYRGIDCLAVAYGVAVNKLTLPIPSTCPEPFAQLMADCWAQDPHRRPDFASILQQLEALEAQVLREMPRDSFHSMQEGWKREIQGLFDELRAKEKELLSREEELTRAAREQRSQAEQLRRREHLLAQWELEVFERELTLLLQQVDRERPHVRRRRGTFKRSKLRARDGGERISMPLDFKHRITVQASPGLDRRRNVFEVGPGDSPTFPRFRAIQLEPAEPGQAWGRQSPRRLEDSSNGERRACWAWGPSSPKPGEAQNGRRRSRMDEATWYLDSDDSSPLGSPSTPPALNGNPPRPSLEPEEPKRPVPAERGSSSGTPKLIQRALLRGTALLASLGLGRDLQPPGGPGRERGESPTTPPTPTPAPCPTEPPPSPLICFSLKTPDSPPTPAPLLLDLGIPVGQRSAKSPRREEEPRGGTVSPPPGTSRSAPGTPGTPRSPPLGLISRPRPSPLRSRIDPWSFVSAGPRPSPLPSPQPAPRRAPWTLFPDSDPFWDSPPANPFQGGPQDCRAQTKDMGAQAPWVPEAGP
Serine/threonine-protein kinase MARK2 (Homo sapiens), sequence (Q7KZI7 whole entry): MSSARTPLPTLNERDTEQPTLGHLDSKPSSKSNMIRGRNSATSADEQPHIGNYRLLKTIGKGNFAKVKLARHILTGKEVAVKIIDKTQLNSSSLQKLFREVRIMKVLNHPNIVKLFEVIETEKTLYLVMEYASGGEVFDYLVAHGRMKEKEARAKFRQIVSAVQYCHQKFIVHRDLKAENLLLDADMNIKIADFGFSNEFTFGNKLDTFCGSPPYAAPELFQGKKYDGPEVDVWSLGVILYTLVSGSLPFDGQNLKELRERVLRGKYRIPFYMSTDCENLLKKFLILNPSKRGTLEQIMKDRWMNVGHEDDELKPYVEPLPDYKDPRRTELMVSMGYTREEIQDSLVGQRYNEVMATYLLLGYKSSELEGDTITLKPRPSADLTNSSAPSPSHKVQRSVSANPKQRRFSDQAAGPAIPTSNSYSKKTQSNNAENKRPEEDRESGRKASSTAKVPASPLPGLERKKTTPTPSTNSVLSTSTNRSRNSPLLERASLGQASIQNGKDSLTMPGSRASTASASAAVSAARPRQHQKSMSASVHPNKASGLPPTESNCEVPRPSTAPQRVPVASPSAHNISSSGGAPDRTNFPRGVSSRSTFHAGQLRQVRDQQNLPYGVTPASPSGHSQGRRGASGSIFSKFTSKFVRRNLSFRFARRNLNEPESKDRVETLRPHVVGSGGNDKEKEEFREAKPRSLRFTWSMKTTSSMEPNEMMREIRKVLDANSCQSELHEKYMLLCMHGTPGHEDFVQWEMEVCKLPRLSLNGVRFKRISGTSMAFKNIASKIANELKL

% of inhibition [1]: 51.5%
% of inhibition [2]: 12.2%
SMILES: CC[C@@H]1[C@H](F)C(=O)N[C@@H]1COc1nccc2cc(C(N)=O)c(OC)cc12 [ZIMLOVISERTIB]

SMILES: COCC(=O)NC/C=C/c1ccc2ncnc(Nc3ccc(Oc4ccc(C)nc4)c(C)c3)c2c1 [CP-724714]
% of control [3]: 100%

SMILES: COc1cc(N(C)c2ccnc3ccc(C(F)(F)F)cc23)cc(OC)c1OC
% binding [4]: 92%

SMILES: C=CC(=O)Nc1cc(-n2c(=O)ccc3cnc4ccc(-c5ccc(NS(C)(=O)=O)cc5)cc4c32)ccc1C
% of control ([5]; at 1 µM): 100%
% of control ([5]; at 10 µM): 64%

SMILES: CN(C)CCOc1ccc(-c2nc(-c3ccncc3)c(-c3ccc4c(c3)CC/C4=N\O)[nH]2)cc1
% of control [6]: 40%
% of control [7]: 100%

SMILES: CNC(=O)Nc1ccc(-c2nc(N3CC4CCC(C3)O4)c3cnn(C4CCC5(CC4)OCCO5)c3n2)cc1
% of inhibition [8]: 8%

SMILES: O=C(NOC[C@H](O)CO)c1ccc(F)c(F)c1Nc1ccc(I)cc1F
% of control [9]: 100%

Reference: ChEMBL document CHEMBL5465560, “Selectivity Literature for EUbOPEN Chemogenomic Library” (2024)
